These results are taken from patent publication US20230278983A1, “INDOLE DERIVATIVES AND USES THEREOF FOR TREATING A CANCER” (Universite Claude Bernard Lyon 1, priority 2020, published 2023).

pIC50: −log10 of the molar value. Like-named read-outs stand apart in the source and are kept apart here.

This experiment has as its target CK2 (Homo sapiens (Human), UniProt P68400). Briefly: Radiometric CK2 kinase assay. Format: biochemical. To be noted: for inhibition at 0.05 µM: compound at 0.05 μM; for inhibition at 1 µM: compound at 1 μM; for inhibition at 0.1 µM: compound at 0.10 μM.
Where [1] appears, read: inhibition of CK2 activity, ATP 10 μM.

Sequence of CK2 (P68400 whole entry): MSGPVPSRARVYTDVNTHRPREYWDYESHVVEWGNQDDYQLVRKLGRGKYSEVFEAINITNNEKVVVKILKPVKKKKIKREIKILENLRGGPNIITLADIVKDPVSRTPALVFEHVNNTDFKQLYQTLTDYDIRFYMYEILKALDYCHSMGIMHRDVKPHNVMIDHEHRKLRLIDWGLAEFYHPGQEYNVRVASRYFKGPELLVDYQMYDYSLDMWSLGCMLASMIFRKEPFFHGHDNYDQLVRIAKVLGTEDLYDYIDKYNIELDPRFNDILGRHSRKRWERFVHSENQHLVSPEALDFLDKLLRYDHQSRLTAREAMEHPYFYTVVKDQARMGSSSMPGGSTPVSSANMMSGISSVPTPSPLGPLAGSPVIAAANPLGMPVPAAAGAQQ

In general, pIC50 refers to the negative decadic logarithm of the IC50, by convention in mol/L. Read a low pIC50 as a large IC50. In the case of `CC(C)COC(=O)c1[nH]c2ccc(F)cc2c1-c1cn(CC2CCN(CCNS(=O)(=O)N3CCC(c4ccccc4)CC3)CC2)nn1` [AB929, isobutyl 5-fluoro-3-(1-((1-(2-((4-phenylpiperidine)-1-sulfonamido)ethyl)piperidin-4-yl)methyl)-1H-1,2,3-triazol-4-yl)-1H-indole-2-carboxylate], the negative-log IC50 (pIC50) under setting [1] is 7.24.

Compound `CC(=O)c1[nH]c2ccc(F)cc2c1-c1cn(CC2CCN(CCNS(=O)(=O)c3ccc(-c4c(F)cccc4F)cc3)CC2)nn1` [AB1288, N-(2-(4-((4-(2-acetyl-5-fluoro-1H-indol-3-yl)-1H-1,2,3-triazol-1-yl)methyl)piperidin-1-yl)ethyl)-2′,6′-difluoro-[1,1′-biphenyl]-4-sulfonamide] gave a pIC50 of 7.11.

In general, inhibition refers to how much of the control response was suppressed. Lower therefore signals a weak effect. Consider `COc1ccccc1-c1ccc(S(=O)(=O)NCCN2CCC(Cn3cc(-c4c(C(=O)OCC(C)C)[nH]c5ccc(F)cc45)nn3)CC2)cc1` [AB1205, isobutyl 5-fluoro-3-(1-((1-(2-((2′-methoxy-[1,1′-biphenyl])-4-sulfonamido)ethyl)piperidin-4-yl)methyl)-1H-1,2,3-triazol-4-yl)-1H-indole-2-carboxylate], for which the inhibition at 0.05 µM (ATP 10 μM) was determined as 59%.

For the compound `CC(C)COC(=O)c1[nH]c2ccc(F)cc2c1-c1cn(CC2CCN(CCNS(=O)(=O)c3ccc(C4CCCCC4)cc3)CC2)nn1` [AB914, isobutyl 3-(1-((1-(2-((4-cyclohexylphenyl)sulfonamido)ethyl)piperidin-4-yl)methyl)-1H-1,2,3-triazol-4-yl)-5-fluoro-1H-indole-2-carboxylate], the negative-log IC50 (pIC50) is 7.15.

Take `O=C(O)c1[nH]c2cc(Cl)ccc2c1-c1cn(CC2CCN(CCNS(=O)(=O)c3ccc(Cl)cc3)CC2)nn1` [AB202, 6-Chloro-3-(1-((1-(2-((4-chlorophenyl)sulfonamido)ethyl)piperidin-4-yl)methyl)-1H-1,2,3-triazol-4-yl)-1H-indole-2-carboxylic acid]: the pIC50 under setting [1] was 4.92.

`O=S(=O)(NCCN1CCC(Cn2cc(-c3c[nH]c4ccccc34)nn2)CC1)c1ccc(Cl)cc1` [AB152, N-(2-(4-((4-(1H-Indol-3-yl)-1H-1,2,3-triazol-1-yl)methyl)piperidin-1-yl)ethyl)-4-chlorobenzenesulfonamide] showed a pIC50 of 4.46.

For `CC(C)COC(=O)c1[nH]c2ccc(F)cc2c1-c1cn(CC2CCN(Cc3ccc(Oc4cccc(C(C)C)c4)c(C(C)C)c3)CC2)nn1` [AB713, Isobutyl 5-fluoro-3-(1-((1-(3-isopropyl-4-(3-isopropylphenoxy)benzyl)piperidin-4-yl)methyl)-1H-1,2,3-triazol-4-yl)-1H-indole-2-carboxylate], where the note is “ATP 10 μM”, the inhibition at 1 µM was determined as 5%.

`COCc1ccccc1-c1ccc(CN2CCC(Cn3cc(-c4c(C(=O)OCC(C)C)[nH]c5ccc(F)cc45)nn3)CC2)cc1C(C)C` [AB704] registered an inhibition at 1 µM (ATP 10 μM) of 21%.

For the compound `CC(=O)c1cccc(-c2ccc(CN3CCC(Cn4cc(-c5c(C(=O)OCC(C)C)[nH]c6ccc(F)cc56)nn4)CC3)cc2Cl)c1` [AB739, Isobutyl 3-(1-((1-((3′-acetyl-2-chloro-[1,1′-biphenyl]-4-yl)methyl)piperidin-4-yl)methyl)-1H-1,2,3-triazol-4-yl)-5-fluoro-1H-indole-2-carboxylate], the inhibition at 1 µM (ATP 10 μM) amounted to 7%.

Take `CC(C)COC(=O)c1[nH]c2ccc(F)cc2c1-c1cn(CC2CCN(CCNS(=O)(=O)Cc3cccc(Cl)c3)CC2)nn1` [AB937, isobutyl 3-(1-((1-(2-(((3-chlorophenyl)methyl)sulfonamido)ethyl)piperidin-4-yl)methyl)-1H-1,2,3-triazol-4-yl)-5-fluoro-1H-indole-2-carboxylate]: the pIC50 under setting [1] is 6.10.

With `CCc1ccc(S(=O)(=O)NCCN2CCC(Cn3cc(-c4c(C(=O)OCCC(C)C)[nH]c5ccc(F)cc45)nn3)CC2)cc1` [AB663, Isopentyl 3-(1-((1-(2-((4-ethylphenyl)sulfonamido)ethyl)piperidin-4-yl)methyl)-1H-1,2,3-triazol-4-yl)-5-fluoro-1H-indole-2-carboxylate], under “ATP 10 μM”, the inhibition at 1 µM came to 11%.

Where the note is “ATP 10 μM”, `CC(C)CCOC(=O)c1[nH]c2ccc(F)cc2c1-c1cn(CC2CCN(CCNS(=O)(=O)c3ccc(CC(C)C)cc3)CC2)nn1` [AB669, Isopentyl 5-fluoro-3-(1-((1-(2-((4-isobutylphenyl)sulfonamido)ethyl)piperidin-4-yl)methyl)-1H-1,2,3-triazol-4-yl)-1H-indole-2-carboxylate] showed an inhibition at 1 µM of 32%.

In turn, `COCc1ccccc1-c1ccc(C(=O)N2CCC(Cn3cc(-c4c(C(=O)OCC(C)C)[nH]c5ccc(F)cc45)nn3)CC2)cc1Cl` [AB681, Isobutyl 3-(1-((1-(2-chloro-2′-(methoxymethyl)-[1,1′-biphenyl]-4-carbonyl)piperidin-4-yl)methyl)-1H-1,2,3-triazol-4-yl)-5-fluoro-1H-indole-2-carboxylate] returned an inhibition at 1 µM (ATP 10 μM) of 18%.

For the compound `Cc1noc(C)c1-c1ccc(S(=O)(=O)NCCN2CCC(Cn3cc(-c4c(C(=O)C5CC5)[nH]c5ccc(F)cc45)nn3)CC2)cc1` [AB1285, N-(2-(4-((4-(2-(cyclopropanecarbonyl)-5-fluoro-1H-indol-3-yl)-1H-1,2,3-triazol-1-yl)methyl)piperidin-1-yl)ethyl)-4-(3,5-dimethylisoxazol-4-yl)benzenesulfonamide], the pIC50 was 6.03.

In turn, `CC(C)COC(=O)c1[nH]c2ccc(F)cc2c1-c1cn(CC2CCN(CCNS(=O)(=O)c3ccc(-c4c(F)cccc4F)cc3)CC2)nn1` [AB1208, isobutyl 3-(1-((1-(2-((2′,6′-difluoro-[1,1′-biphenyl])-4-sulfonamido)ethyl)piperidin-4-yl)methyl)-1H-1,2,3-triazol-4-yl)-5-fluoro-1H-indole-2-carboxylate] had a pIC50 of 7.35.

Compound `CC(C)COC(=O)c1[nH]c2ccc(F)cc2c1-c1cn(CC2CCN(CCNS(=O)(=O)c3ccc(OC(F)(F)F)cc3)CC2)nn1` [AB912, isobutyl 5-fluoro-3-(1-((1-(2-((4-(trifluoromethoxy)phenyl)sulfonamido)ethyl)piperidin-4-yl)methyl)-1H-1,2,3-triazol-4-yl)-1H-indole-2-carboxylate] had a pIC50 of 6.52. Compared with the last compound, the pIC50 is 0.83 log units lower.

The compound `O=S(=O)(NCCN1CCC(Cn2cc(-c3c(CO)[nH]c4ccc(F)cc34)nn2)CC1)c1ccc(-c2c(O)cccc2F)cc1` [AB1406, 2′-fluoro-N-(2-(4-((4-(5-fluoro-2-(hydroxymethyl)-1H-indol-3-yl)-1H-1,2,3-triazol-1-yl)methyl)piperidin-1-yl)ethyl)-6′-hydroxy-[1,1′-biphenyl]-4-sulfonamide] registered an inhibition at 0.1 µM (ATP 10 μM) of 29%.

For the compound `CCc1ccc(S(=O)(=O)NCCN2CCC(Cn3cc(-c4c(C(=O)OCC(C)C)[nH]c5ccc(F)cc45)nn3)CC2)cc1` [AB556, Isobutyl 3-(1-((1-(2-((4-ethylphenyl)sulfonamido)ethyl)piperidin-4-yl)methyl)-1H-1,2,3-triazol-4-yl)-5-fluoro-1H-indole-2-carboxylate], the pIC50 is 6.77.

For `CC(C)COC(=O)c1[nH]c2ccc(F)cc2c1-c1cn(CC2CCN(Cc3ccc(-c4cccc(C(C)C)c4)c(Cl)c3)CC2)nn1` [AB758, Isobutyl 3-(1-((1-((2-chloro-3′-isopropyl-[1,1′-biphenyl]-4-yl)methyl)piperidin-4-yl)methyl)-1H-1,2,3-triazol-4-yl)-5-fluoro-1H-indole-2-carboxylate], at 1 µM the inhibition (ATP 10 μM) was 17%.

Regarding `CCc1ccc(S(=O)(=O)NCCN2CCC(Cn3cc(-c4c(C(=O)OC(C)C)[nH]c5ccc(F)cc45)nn3)CC2)cc1` [AB577, Isopropyl 3-(1-((1-(2-((4-ethylphenyl)sulfonamido)ethyl)piperidin-4-yl)methyl)-1H-1,2,3-triazol-4-yl)-5-fluoro-1H-indole-2-carboxylate], the pIC50 is 5.64.

As to `CCc1ccc(S(=O)(=O)NCCN2CCC(Cn3cc(-c4c(C(=O)OCCN)[nH]c5ccc(F)cc45)nn3)CC2)cc1` [AB614, 2-Aminoethyl 3-(1-((1-(2-((4-ethylphenyl)sulfonamido)ethyl)piperidin-4-yl)methyl)-1H-1,2,3-triazol-4-yl)-5-fluoro-1H-indole-2-carboxylate], under setting [1], the pIC50 was 5.49.

Regarding `CC(C)Cc1ccc(S(=O)(=O)NCCN2CCC(Cn3cc(-c4c(C=O)[nH]c5ccc(F)cc45)nn3)CC2)cc1` [AB1235, N-(2-(4-((4-(5-fluoro-2-formyl-1H-indol-3-yl)-1H-1,2,3-triazol-1-yl)methyl)piperidin-1-yl)ethyl)-4-isobutylbenzenesulfonamide], under setting [1], the pIC50 is 7.05.

On to `CC(C)COC(=O)c1[nH]c2ccc(F)cc2c1-c1cn(CC2CCN(CCNS(=O)(=O)c3ccc(-c4cccnc4F)cc3)CC2)nn1` [AB1207, isobutyl 5-fluoro-3-(1-((1-(2-((4-(2-fluoropyridin-3-yl)phenyl)sulfonamido)ethyl)piperidin-4-yl)methyl)-1H-1,2,3-triazol-4-yl)-1H-indole-2-carboxylate], for which the inhibition at 0.05 µM (ATP 10 μM) came to 61%.

In turn, `COc1cccc(OC)c1-c1ccc(S(=O)(=O)NCCN2CCC(Cn3cc(-c4c(C(C)=O)[nH]c5ccc(F)cc45)nn3)CC2)cc1F` [AB1454, N-(2-(4-((4-(2-acetyl-5-fluoro-1H-indol-3-yl)-1H-1,2,3-triazol-1-yl)methyl)piperidin-1-yl)ethyl)-2-fluoro-2′,6′-dimethoxy-[1,1′-biphenyl]-4-sulfonamide] gave a pIC50 of 7.96.

Turning to `CC(=O)c1[nH]c2ccc(F)cc2c1-c1cn(CC2CCN(CCNS(=O)(=O)c3ccc(CC4CC4)cc3)CC2)nn1` [AB1317, N-(2-(4-((4-(2-acetyl-5-fluoro-1H-indol-3-yl)-1H-1,2,3-triazol-1-yl)methyl)piperidin-1-yl)ethyl)-4-(cyclopropylmethyl)benzenesulfonamide], the pIC50 is 6.51. Against the preceding compound, the pIC50 is 1.45 log units lower.

Turning to `CCCC(=O)c1[nH]c2ccc(F)cc2c1-c1cn(CC2CCN(CCNS(=O)(=O)Cc3ccc(C(F)(F)F)cc3)CC2)nn1` [AB1307, N-(2-(4-((4-(2-butyryl-5-fluoro-1H-indol-3-yl)-1H-1,2,3-triazol-1-yl)methyl)piperidin-1-yl)ethyl)-1-(4-(trifluoromethyl)phenyl)methanesulfonamide], for the setting “ATP 10 μM”, 0.1 µM produced 12% inhibition.
